# Assay results published in ChEMBL document CHEMBL1201862, “PubChem BioAssay data set” (2004).
#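 1) Cells in 96-well plates. 2) Compound, 48 h, 5 concentrations. 3) Linear interpolation between surrounding doses. 4) Unreached endpoint = highest concentration. The concentration for 50% growth inhibition is given as GI50.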 Activity calls are given as the source filed them. Cut-off read from the data, not from the text of the source: active = GI50 up to about 1.1 µM and inactive = higher.
# Experiments:
# Assay in all cases: growth of human tumour cells (NCI), 48 h
# A498 = system: A498
# A549 = system: A549
# CAKI-1 = system: CAKI-1
# CCRF-CEM = system: CCRF-CEM
# COLO 205 = system: COLO 205
# DLD-1 = system: DLD-1
# DMS-114 = system: DMS-114
# DMS-273 = system: DMS-273
# EKVX = system: EKVX
# HCC 2998 = system: HCC 2998
# HCT-116 = system: HCT-116
# HCT-15 = system: HCT-15
# HL-60 = system: HL-60
# HOP-18 = system: HOP-18
# HOP-62 = system: HOP-62
# HOP-92 = system: HOP-92
# HT-29 = system: HT-29
# IGROV-1 = system: IGROV-1
# K562 = system: K562
# KM-20L2 = system: KM-20L2
# KM12 = system: KM12
# LOX IMVI = system: LOX IMVI
# M19-MEL = system: M19-MEL
# MCF7 = system: MCF7
# MOLT-4 = system: MOLT-4
# Malme-3M = system: Malme-3M
# NCI-H226 = system: NCI-H226
# NCI-H23 = system: NCI-H23
# NCI-H460 = system: NCI-H460
# NCI-H522 = system: NCI-H522
# NCI/ADR-RES = system: NCI/ADR-RES
# OVCAR-3 = system: OVCAR-3
# OVCAR-4 = system: OVCAR-4
# OVCAR-5 = system: OVCAR-5
# OVCAR-8 = system: OVCAR-8
# RPMI-8226 = system: RPMI-8226
# RXF 393 = system: RXF 393
# SF-268 = system: SF-268
# SF-295 = system: SF-295
# SF-539 = system: SF-539
# SK-MEL-28 = system: SK-MEL-28
# SK-MEL-2 = system: SK-MEL-2
# SK-MEL-5 = system: SK-MEL-5
# SK-OV-3 = system: SK-OV-3
# SN12C = system: SN12C
# SNB-19 = system: SNB-19
# SNB-75 = system: SNB-75
# SNB-78 = system: SNB-78
# SW-620 = system: SW-620
# U-251 = system: U-251
# UACC-257 = system: UACC-257
# UACC-62 = system: UACC-62
# UO-31 = system: UO-31
# XF498 = system: XF498
# 786-0 = system: 786-0
# ACHN = system: ACHN
# LXFL 529 = system: LXFL 529
# M14 = system: M14
# SR = system: SR
# TK-10 = system: TK-10
smiles,measurement,setting,value
COC1=C(C)C(=O)C2=C(C1=O)[C@@H]1[C@@H]3Cc4c(OC(=O)CO)c(C)c(OC)c(O)c4[C@H](CNC(=O)C(C)=O)N3[C@@H](C#N)[C@H](C2)N1C,GI50,A498,0.0959 µM (active)
same,GI50,A549,0.366 µM (active)
same,GI50,CAKI-1,< 0.01 µM (active)
same,GI50,CCRF-CEM,0.0271 µM (active)
same,GI50,COLO 205,< 0.0155 µM (active)
same,GI50,DLD-1,0.0115 µM (active)
same,GI50,DMS-114,< 0.01 µM (active)
same,GI50,DMS-273,0.0189 µM (active)
same,GI50,EKVX,< 0.0405 µM (active)
same,GI50,HCC 2998,0.0472 µM (active)
same,GI50,HCT-116,0.0573 µM (active)
same,GI50,HCT-15,< 0.01 µM
same,GI50,HL-60,< 0.0135 µM (active)
same,GI50,HOP-18,0.0382 µM (active)
same,GI50,HOP-62,0.221 µM (active)
same,GI50,HOP-92,< 0.0119 µM (active)
same,GI50,HT-29,0.0182 µM (active)
same,GI50,IGROV-1,0.0177 µM (active)
same,GI50,K562,< 0.01 µM (active)
same,GI50,KM-20L2,0.0466 µM (active)
same,GI50,KM12,0.108 µM (active)
same,GI50,LOX IMVI,< 0.01 µM (active)
same,GI50,M19-MEL,< 0.0171 µM (active)
same,GI50,MCF7,0.0332 µM (active)
same,GI50,MOLT-4,0.0286 µM (active)
same,GI50,Malme-3M,0.0562 µM (active)
same,GI50,NCI-H226,0.0871 µM (active)
same,GI50,NCI-H23,< 0.011 µM (active)
same,GI50,NCI-H460,0.107 µM (active)
same,GI50,NCI-H522,< 0.01 µM (active)
same,GI50,NCI/ADR-RES,1.08 µM (active)
same,GI50,OVCAR-3,< 0.0153 µM (active)
same,GI50,OVCAR-4,0.106 µM (active)
same,GI50,OVCAR-5,0.098 µM (active)
same,GI50,OVCAR-8,0.024 µM (active)
same,GI50,RPMI-8226,< 0.0142 µM (active)
same,GI50,RXF 393,0.0184 µM (active)
same,GI50,SF-268,0.0552 µM (active)
same,GI50,SF-295,0.199 µM (active)
same,GI50,SF-539,0.0528 µM (active)
same,GI50,SK-MEL-28,0.0713 µM (active)
same,GI50,SK-MEL-2,< 0.0189 µM (active)
same,GI50,SK-MEL-5,0.0154 µM (active)
same,GI50,SK-OV-3,0.415 µM (active)
same,GI50,SN12C,0.013 µM (active)
same,GI50,SNB-19,0.0414 µM (active)
same,GI50,SNB-75,< 0.0353 µM (active)
same,GI50,SNB-78,< 0.013 µM (active)
same,GI50,SW-620,< 0.0164 µM (active)
same,GI50,U-251,0.029 µM (active)
same,GI50,UACC-257,< 0.0152 µM (active)
same,GI50,UACC-62,< 0.0208 µM (active)
same,GI50,UO-31,0.0738 µM (active)
same,GI50,XF498,< 0.01 µM (active)
CCOC(=O)/C(I)=C/c1cc(OC)c(OC)c(OC)c1,GI50,786-0,4.44 µM (inactive)
same,GI50,A498,25.6 µM (inactive)
same,GI50,A549,4.89 µM (inactive)
same,GI50,ACHN,7.14 µM (inactive)
same,GI50,CAKI-1,4.27 µM (inactive)
same,GI50,CCRF-CEM,1.93 µM (inactive)
same,GI50,COLO 205,6.12 µM (inactive)
same,GI50,DLD-1,6.03 µM (inactive)
same,GI50,DMS-114,2.92 µM (inactive)
same,GI50,DMS-273,6.68 µM (inactive)
same,GI50,EKVX,15.8 µM (inactive)
same,GI50,HCC 2998,14.2 µM (inactive)
same,GI50,HCT-116,3.26 µM (inactive)
same,GI50,HCT-15,3.9 µM
same,GI50,HL-60,3.67 µM (inactive)
same,GI50,HOP-18,11.6 µM (inactive)
same,GI50,HOP-62,26.9 µM (inactive)
same,GI50,HOP-92,11.6 µM (inactive)
same,GI50,HT-29,4.55 µM (inactive)
same,GI50,IGROV-1,22.2 µM (inactive)
same,GI50,K562,3.86 µM (inactive)
same,GI50,KM-20L2,3.21 µM (inactive)
same,GI50,KM12,6.4 µM (inactive)
same,GI50,LOX IMVI,1.75 µM (inactive)
same,GI50,LXFL 529,10.4 µM (inactive)
same,GI50,M14,3.87 µM (inactive)
same,GI50,M19-MEL,4.12 µM (inactive)
same,GI50,MOLT-4,7.01 µM (inactive)
same,GI50,Malme-3M,8.89 µM (inactive)
same,GI50,NCI-H226,4.69 µM (inactive)
same,GI50,NCI-H23,3.08 µM (inactive)
same,GI50,NCI-H460,40.6 µM (inactive)
same,GI50,NCI-H522,4.14 µM (inactive)
same,GI50,OVCAR-3,3.94 µM (inactive)
same,GI50,OVCAR-4,14.7 µM (inactive)
same,GI50,OVCAR-5,6.52 µM (inactive)
same,GI50,OVCAR-8,6.37 µM (inactive)
same,GI50,RPMI-8226,4.02 µM (inactive)
same,GI50,SF-268,1.36 µM (inactive)
same,GI50,SF-295,9.91 µM (inactive)
same,GI50,SF-539,9.08 µM (inactive)
same,GI50,SK-MEL-28,1.41 µM (inactive)
same,GI50,SK-MEL-2,49 µM (inactive)
same,GI50,SK-MEL-5,7.83 µM (inactive)
same,GI50,SK-OV-3,26.9 µM (inactive)
same,GI50,SN12C,4.62 µM (inactive)
same,GI50,SNB-19,7.64 µM (inactive)
same,GI50,SNB-75,28.8 µM (inactive)
same,GI50,SNB-78,28.2 µM (inactive)
same,GI50,SR,2.98 µM (inactive)
same,GI50,SW-620,3.55 µM (inactive)
same,GI50,TK-10,19.3 µM (inactive)
same,GI50,U-251,6.11 µM (inactive)
same,GI50,UACC-257,10.8 µM (inactive)
same,GI50,UACC-62,4.5 µM (inactive)
same,GI50,UO-31,5.79 µM (inactive)
same,GI50,XF498,2.92 µM (inactive)
CC(=O)Nc1ccc(S(=O)(=O)Nc2cnc3ccccc3n2)cc1,GI50,786-0,> 100 µM (inactive)
same,GI50,A498,> 100 µM (inactive)
same,GI50,A549,> 100 µM (inactive)
same,GI50,ACHN,> 100 µM (inactive)
same,GI50,CAKI-1,> 100 µM (inactive)
same,GI50,CCRF-CEM,> 100 µM (inactive)
same,GI50,COLO 205,> 100 µM (inactive)
same,GI50,DLD-1,> 100 µM (inactive)
same,GI50,DMS-114,> 100 µM (inactive)
same,GI50,DMS-273,> 100 µM (inactive)
same,GI50,EKVX,> 100 µM (inactive)
same,GI50,HCC 2998,> 100 µM (inactive)
same,GI50,HCT-15,> 100 µM
same,GI50,HL-60,> 100 µM (inactive)
same,GI50,HOP-18,> 100 µM (inactive)
same,GI50,HOP-62,> 100 µM (inactive)
same,GI50,HOP-92,> 100 µM (inactive)
same,GI50,HT-29,> 100 µM (inactive)
same,GI50,IGROV-1,> 100 µM (inactive)
same,GI50,K562,> 100 µM (inactive)
same,GI50,KM-20L2,> 100 µM (inactive)
same,GI50,KM12,> 100 µM (inactive)
same,GI50,LOX IMVI,> 100 µM (inactive)
same,GI50,LXFL 529,> 100 µM (inactive)
same,GI50,M14,> 100 µM (inactive)
same,GI50,M19-MEL,> 100 µM (inactive)
same,GI50,MOLT-4,> 100 µM (inactive)
same,GI50,Malme-3M,> 100 µM (inactive)
same,GI50,NCI-H226,> 100 µM (inactive)
same,GI50,NCI-H23,> 100 µM (inactive)
same,GI50,NCI-H460,> 100 µM (inactive)
same,GI50,NCI-H522,> 100 µM (inactive)
same,GI50,OVCAR-3,> 100 µM (inactive)
same,GI50,OVCAR-4,> 100 µM (inactive)
same,GI50,OVCAR-5,> 100 µM (inactive)
same,GI50,OVCAR-8,> 100 µM (inactive)
same,GI50,RPMI-8226,> 100 µM (inactive)
same,GI50,RXF 393,> 100 µM (inactive)
same,GI50,SF-268,> 100 µM (inactive)
same,GI50,SF-295,> 100 µM (inactive)
same,GI50,SF-539,> 100 µM (inactive)
same,GI50,SK-MEL-28,> 100 µM (inactive)
same,GI50,SK-MEL-2,> 100 µM (inactive)
same,GI50,SK-MEL-5,> 100 µM (inactive)
same,GI50,SK-OV-3,> 100 µM (inactive)
same,GI50,SN12C,> 100 µM (inactive)
same,GI50,SNB-19,> 100 µM (inactive)
same,GI50,SNB-75,63.5 µM (inactive)
same,GI50,SR,> 100 µM (inactive)
same,GI50,SW-620,> 100 µM (inactive)
same,GI50,TK-10,> 100 µM (inactive)
same,GI50,U-251,> 100 µM (inactive)
same,GI50,UACC-257,> 100 µM (inactive)
same,GI50,UACC-62,> 100 µM (inactive)
same,GI50,UO-31,> 100 µM (inactive)
same,GI50,XF498,> 100 µM (inactive)
